Measurements taken from PubChem BioAssay (NCI).
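Assay format: 96-well plates, 48-hour exposure. Definition used: TGI = concentration required for complete inhibition of growth.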

Tests used:
Test in all cases: NCI-60 cell line screen, 48 h
A549 NSCLC = tested on: A549 NSCLC
HCT-116 colon = tested on: HCT-116 colon
LOX IMVI melanoma = tested on: LOX IMVI melanoma
HOP-62 NSCLC = tested on: HOP-62 NSCLC
SNB-75 CNS = tested on: SNB-75 CNS
KM12 colon = tested on: KM12 colon
SF-268 CNS = tested on: SF-268 CNS
MCF7 breast = tested on: MCF7 breast
HCC-2998 colon = tested on: HCC-2998 colon
UO-31 renal = tested on: UO-31 renal
786-0 renal = tested on: 786-0 renal
DU-145 prostate = tested on: DU-145 prostate
HOP-92 NSCLC = tested on: HOP-92 NSCLC
PC-3 prostate = tested on: PC-3 prostate
SK-MEL-28 melanoma = tested on: SK-MEL-28 melanoma
NCI-H460 lung = tested on: NCI-H460 lung
MDA-MB-231 breast = tested on: MDA-MB-231 breast
T-47D breast = tested on: T-47D breast
NCI-H23 lung = tested on: NCI-H23 lung
SK-MEL-2 melanoma = tested on: SK-MEL-2 melanoma
HT29 colon = tested on: HT29 colon
M14 melanoma = tested on: M14 melanoma
SK-OV-3 ovarian = tested on: SK-OV-3 ovarian
ACHN renal = tested on: ACHN renal
CCRF-CEM leukemia = tested on: CCRF-CEM leukemia
SNB-19 CNS = tested on: SNB-19 CNS
A498 renal = tested on: A498 renal
MDA-N = tested on: MDA-N
SK-MEL-5 melanoma = tested on: SK-MEL-5 melanoma
SR leukemia = tested on: SR leukemia
SN12C renal = tested on: SN12C renal
UACC-257 melanoma = tested on: UACC-257 melanoma
OVCAR-5 ovarian = tested on: OVCAR-5 ovarian
UACC-62 melanoma = tested on: UACC-62 melanoma
HCT-15 colon = tested on: HCT-15 colon
IGROV1 ovarian = tested on: IGROV1 ovarian
RXF 393 renal = tested on: RXF 393 renal
HL-60(TB) leukemia = tested on: HL-60(TB) leukemia
OVCAR-4 ovarian = tested on: OVCAR-4 ovarian
MALME-3M melanoma = tested on: MALME-3M melanoma
RPMI-8226 leukemia = tested on: RPMI-8226 leukemia
EKVX NSCLC = tested on: EKVX NSCLC
SW-620 colon = tested on: SW-620 colon
SF-539 CNS = tested on: SF-539 CNS
TK-10 renal = tested on: TK-10 renal
CAKI-1 renal = tested on: CAKI-1 renal
OVCAR-3 ovarian = tested on: OVCAR-3 ovarian
MOLT-4 leukemia = tested on: MOLT-4 leukemia
K-562 leukemia = tested on: K-562 leukemia
BT-549 breast = tested on: BT-549 breast
NCI/ADR-RES ovarian = tested on: NCI/ADR-RES ovarian
SF-295 CNS = tested on: SF-295 CNS
U251 CNS = tested on: U251 CNS
HS 578T breast = tested on: HS 578T breast
COLO 205 colon = tested on: COLO 205 colon
MDA-MB-435 = tested on: MDA-MB-435
NCI-H226 lung = tested on: NCI-H226 lung
OVCAR-8 ovarian = tested on: OVCAR-8 ovarian
NCI-H522 lung = tested on: NCI-H522 lung
XF 498 CNS = tested on: XF 498 CNS
KM20L2 colon = tested on: KM20L2 colon
SNB-78 CNS = tested on: SNB-78 CNS
DMS 273 small cell lung = tested on: DMS 273 small cell lung
M19-MEL melanoma = tested on: M19-MEL melanoma
DMS 114 small cell lung = tested on: DMS 114 small cell lung
HOP-18 NSCLC = tested on: HOP-18 NSCLC

In the case of COc1cc2c3c(n(C)c(=O)c2cc1OC)-c1cc2c(cc1/C3=C\CCCI)OCO2, the TGI (A549 NSCLC) is reported as > 100 µM, the TGI (HCT-116 colon) is reported as > 100 µM and the TGI (LOX IMVI melanoma) is reported as > 100 µM. For the same compound, the TGI (HOP-62 NSCLC) was > 100 µM, the TGI (SNB-75 CNS) was > 52 µM and the TGI (KM12 colon) was > 100 µM. For the same compound, the TGI (SF-268 CNS) was > 100 µM, the TGI (MCF7 breast) was > 100 µM and the TGI (HCC-2998 colon) was > 100 µM. The TGI (UO-31 renal) was > 100 µM, the TGI (786-0 renal) was > 100 µM and the TGI (DU-145 prostate) was > 100 µM. For the same compound, the TGI (HOP-92 NSCLC) was > 100 µM, the TGI (PC-3 prostate) was > 100 µM and the TGI (SK-MEL-28 melanoma) was > 100 µM. For the same compound, the TGI (NCI-H460 lung) was > 100 µM, the TGI (MDA-MB-231 breast) was > 100 µM and the TGI (T-47D breast) was > 95.4 µM. The TGI (NCI-H23 lung) was > 100 µM, the TGI (SK-MEL-2 melanoma) was > 100 µM and the TGI (HT29 colon) was > 100 µM. For the same compound, the TGI (M14 melanoma) was > 100 µM, the TGI (SK-OV-3 ovarian) was > 100 µM and the TGI (ACHN renal) was > 85.3 µM. For the same compound, the TGI (CCRF-CEM leukemia) was > 100 µM, the TGI (SNB-19 CNS) was > 100 µM and the TGI (A498 renal) was > 93.3 µM. For the same compound, the TGI (MDA-N) was > 100 µM, the TGI (SK-MEL-5 melanoma) was > 100 µM and the TGI (SR leukemia) was 23.2 µM. The TGI (SN12C renal) was > 100 µM, the TGI (UACC-257 melanoma) was > 100 µM and the TGI (OVCAR-5 ovarian) was > 100 µM. For the same compound, the TGI (UACC-62 melanoma) was > 100 µM, the TGI (HCT-15 colon) was > 100 µM and the TGI (IGROV1 ovarian) was > 46.7 µM. For the same compound, the TGI (RXF 393 renal) was > 100 µM, the TGI (HL-60(TB) leukemia) was > 100 µM and the TGI (OVCAR-4 ovarian) was > 100 µM. For the same compound, the TGI (MALME-3M melanoma) was > 100 µM, the TGI (RPMI-8226 leukemia) was > 74.6 µM and the TGI (EKVX NSCLC) was > 100 µM. The TGI (SW-620 colon) was > 100 µM, the TGI (SF-539 CNS) was > 95.3 µM and the TGI (TK-10 renal) was > 85.6 µM. For the same compound, the TGI (CAKI-1 renal) was > 100 µM, the TGI (OVCAR-3 ovarian) was > 100 µM and the TGI (MOLT-4 leukemia) was > 36.3 µM. For the same compound, the TGI (K-562 leukemia) was > 100 µM, the TGI (BT-549 breast) was > 100 µM and the TGI (NCI/ADR-RES ovarian) was > 100 µM. For the same compound, the TGI (SF-295 CNS) was > 41.6 µM, the TGI (U251 CNS) was > 100 µM and the TGI (HS 578T breast) was > 75.5 µM. For the same compound, the TGI (COLO 205 colon) was > 100 µM, the TGI (MDA-MB-435) was > 100 µM and the TGI (NCI-H226 lung) was > 100 µM. For the same compound, the TGI (OVCAR-8 ovarian) was > 100 µM and the TGI (NCI-H522 lung) was > 100 µM.

In the case of NC(=O)c1ccccc1[N+](=O)[O-], the TGI (A549 NSCLC) is reported as > 100 µM, the TGI (HCT-116 colon) is reported as > 100 µM and the TGI (HOP-62 NSCLC) is reported as > 100 µM. The TGI (SNB-75 CNS) was > 100 µM, the TGI (SF-268 CNS) was > 100 µM and the TGI (XF 498 CNS) was > 100 µM. The TGI (HCC-2998 colon) was > 100 µM, the TGI (786-0 renal) was > 100 µM and the TGI (KM20L2 colon) was > 100 µM. For the same compound, the TGI (SNB-78 CNS) was > 100 µM, the TGI (HOP-92 NSCLC) was > 100 µM and the TGI (SK-MEL-28 melanoma) was > 100 µM. The TGI (HT29 colon) was > 100 µM, the TGI (ACHN renal) was > 100 µM and the TGI (SNB-19 CNS) was > 100 µM. The TGI (A498 renal) was > 100 µM, the TGI (SK-MEL-5 melanoma) was > 100 µM and the TGI (SN12C renal) was > 100 µM. For the same compound, the TGI (UACC-62 melanoma) was > 100 µM, the TGI (HCT-15 colon) was > 100 µM and the TGI (IGROV1 ovarian) was > 100 µM. For the same compound, the TGI (MALME-3M melanoma) was > 100 µM, the TGI (RPMI-8226 leukemia) was > 100 µM and the TGI (EKVX NSCLC) was > 100 µM. For the same compound, the TGI (SW-620 colon) was > 100 µM, the TGI (SF-539 CNS) was > 100 µM and the TGI (CAKI-1 renal) was > 100 µM. For the same compound, the TGI (OVCAR-3 ovarian) was > 100 µM, the TGI (MOLT-4 leukemia) was > 100 µM and the TGI (K-562 leukemia) was > 100 µM. The TGI (DMS 273 small cell lung) was > 100 µM, the TGI (M19-MEL melanoma) was > 100 µM and the TGI (U251 CNS) was > 100 µM. The TGI (DMS 114 small cell lung) was > 100 µM, the TGI (HOP-18 NSCLC) was > 100 µM and the TGI (COLO 205 colon) was > 100 µM. For the same compound, the TGI (OVCAR-8 ovarian) was > 100 µM.
